This is an account of results in article PMC3606118, “Salvianolic Acid A, a Novel Matrix Metalloproteinase-9 Inhibitor, Prevents Cardiac Remodeling in Spontaneously Hypertensive Rats” (PLoS ONE, 2013).

Experiment [1] has as its target T1, MMP-9 CD (Homo sapiens, UniProt P14780, DEL217-390).
T1 construct: corresponding to residues 107–216 and 391–444; made in house
T1 sequence (P14780 with tags, fused parts or gaps DEL217-390 limits assumed): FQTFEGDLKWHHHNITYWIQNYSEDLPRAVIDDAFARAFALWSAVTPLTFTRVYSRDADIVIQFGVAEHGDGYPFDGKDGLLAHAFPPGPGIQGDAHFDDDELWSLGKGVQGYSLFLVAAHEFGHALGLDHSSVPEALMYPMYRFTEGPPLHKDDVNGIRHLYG
The experiment in a line: Real time binding by surface plasmon resonance (Biacore). The note with it: for Kd: steady state affinity fit model, immobilized MMP-9 CD, 25°C, read-out: equilibrium dissociation constant (KD); for binding on MMP-9 CD: surface plasmon resonance. As to the method:
DNA fragments encoding the catalytic domain of MMP-9 (MMP-9 CD, corresponding to residues 107–216 and 391–444) were constructed and subcloned into a pET-15b vector (Novagen). […]. Surface plasmon resonance analysis was performed using Biacore 3000 (Biacore AB). In brief, MMP-9 CD protein (5.8 µmol/L) in 10 mmol/L sodium acetate buffer (pH 3.73) was covalently immobilized on the hydrophilic carboxymethylated dextran matrix of the CM5 sensor chip (BIAcore AB) using standard primary amine coupling procedure. Phenolic acid at various concentrations in HBS-EP running buffer (10 mmol/L HEPES pH 7.4, 150 mmol/L NaCl, 3.4 mmol/L EDTA and 0.005% surfactant P20) were injected at a constant flow rate of 30 µL/min at 25°C. All data were analyzed by BIAevaluation software and the sensorgrams were processed by automatic correction for nonspecific bulk refractive index effects.
In general terms: In SPR one partner is held on a chip, and binding of the other changes the refractive index at the surface.

In experiment [2] the target is T1, MMP-9 CD. The experiment in a line: MMP-9 inhibition assay (thiopeptolide, enzyme kinetic analysis). In kind it is biochemical. The note with it: for Ki: spectrophotometric enzyme kinetic assay, thiopeptolide substrate; for inhibition on MMP-9 CD: enzyme kinetic assay. As to the method: Phenolic acids at the indicated concentrations were incubated with the reaction mixtures contained MMP-9 CD (15 nmol/L) and 5,5′-dithiobis-(2-nitrobenzoic acid) (1 mmol/L) at 4°C for 30 min. The reaction was initiated by the addition of thiopeptolide (Ac-Pro-Leu-Gly-S-Leu-Leu-Gly-OEt). Hydrolysis of thiopeptolide was monitored at 412 nm using Benchmark Plus™ microplate spectrophotometer (Bio-Rad) at room temperature. Kinetic analysis of phenolic acids against MMP-9 CD was calculated using double reciprocal plots of 1/V versus 1/[thiopeptolide]. The slope of every double reciprocal plot is the Km ^app/Vmax of enzyme at different compound concentration. Secondary plot was drawn through Km ^app/Vmax versus compound concentration. Km ^app is apparent value of Km; Ki is inhibition constant; Ki was calculated using the equation Ki = [Km/Vmax][compound]/(Km ^app/Vmax –Km/Vmax).

As usually defined, the Kd is the concentration at which binding is half-saturated. Broadly, the Ki is the equilibrium dissociation constant of an inhibitor or competing ligand from its target. A low value points to higher affinity.

For `O=C(/C=C/c1ccc(O)c2oc(-c3ccc(O)c(O)c3)cc12)O[C@H](Cc1ccc(O)c(O)c1)C(=O)O` [SalC, salvianolic acid C], the Kd at MMP-9 CD [1] came out at 1.13 µM. In addition, on MMP-9 CD [2], the affinity corresponds to a Ki of 110 ± 33.1 µM.
In the case of `O=C(O)[C@H](O)Cc1ccc(O)c(O)c1` [danshensu], at MMP-9 CD [1], the “binding on MMP-9 CD” value was “Neither binding nor inhibition was found”. The “inhibition on MMP-9 CD” value against MMP-9 CD [2] is given as “Neither binding nor inhibition was found”.
`O=C(/C=C/c1ccc(O)c2c1[C@H](C(=O)O)[C@@H](c1ccc(O)c(O)c1)O2)O[C@H](Cc1ccc(O)c(O)c1)C(=O)O` [lithospermic acid]: the dissociation constant (Kd) on MMP-9 CD [1] was 66.2 µM. Moreover, the affinity at MMP-9 CD [2], expressed as Ki, was 324 ± 132 µM.
As for `O=Cc1ccc(O)c(O)c1` [protocatechualdehyde], at MMP-9 CD [1], the “binding on MMP-9 CD” value is “Neither binding nor inhibition was found”. The “inhibition on MMP-9 CD” value against MMP-9 CD [2] was “Neither binding nor inhibition was found”.
As to `O=C(/C=C/c1ccc(O)c(O)c1)O[C@H](Cc1ccc(O)c(O)c1)C(=O)O` [rosmarinic acid], the Kd at MMP-9 CD [1] turned out to be 10.7 µM. In addition, at MMP-9 CD [2], the Ki worked out at 126 ± 8.73 µM.
